Results on two substances are retold here after patent US8697840B2, “Peptide inhibition of lung epithelial apoptosis and pulmonary fibrosis” (Board of Regents, The University of Texas System, priority 2008, dated 2014).

What all share (format): cell-based, human
In one assay the test system is Beas2B cells. As to the kind of experiment: Bleo-induced apoptosis of Beas2B cells, flow cytometry (anti-Annexin-V antibody and propidium iodide). The conditions noted are these: 28 h, 40 μg/ml bleo, uPA 20 nM, anti-β1-integrin antibody 1 μg/ml, PP-1 10 nM. As to the method: FIG. 6 is a graph showing apoptosis (% apoptotic cells) after treatment of cells with a β1-integrin activator (anti-β1-integrin antibody), uPA, a combination of the antibody and uPA, or PP-1, along with appropriate controls. Beas2B cells were treated for 28 h with PBS or 40 μg/ml of Bleo in the presence or absence of uPA (20 nM) or PBS as control, with anti-β1-integrin antibody (1 μg/ml, B1), or mouse IgG (mIgG) as control, a combination of the antibody (or control antibody with uPA, and with PP-1 peptide (10 nM) or the CP-1 control peptide (10 nM) as described above at 37° C. Cells were harvested after trypsinization and LEC apoptosis was determined by flow cytometry after exposing the cells to anti-Annexin-V antibody and propidium iodide (as described for FIG. 2A).
Expression of p53 and PAI-1 shown in Example I were correlated with LEC apoptosis induced by bleo (FIG. 6). […] Beas2B cells were treated for 28 h with PBS or 40 μg/ml of bleo (Bleo) with uPA (20 nM), and/or anti-β1-integrin antibody (1 μg/ml, B1), control mouse IgG (mIgG) PP-1 peptide (10 nM) or CP-1 control peptide (10 nM) as described above at 37° C. Cells were trypsinized and LEC apoptosis was determined by flow cytometry after exposing the cells to anti-Annexin-V antibody and propidium iodide (as described for FIG. 2A).

Assay [1] deals with primary small airway epithelial (SAE) cells. As to the kind of experiment: SAE cell proliferation, DNA synthesis by [3H]-thymidine uptake. The conditions noted are these: uPA between 5 and 20 nM; bleomycin 40 μg/ml as positive control. As to the method: FIGS. 2A-2B is a set of graphs showing dose-dependent induction of primary small airway epithelial (SAE) cell apoptosis and proliferation by uPA. FIG. 2A, SAE cells were treated for 48 h with 0-20 nM uPA at 37° C. Apoptotic cells were analyzed by flow cytometry using anti-annexin-V antibody and propidium iodide (PI). Bleo (40 μg/ml) was used as positive control (90). FIG. 2B, The cells were next treated with uPA as described in FIG. 1A and DNA synthesis was determined by [^3H]-thymidine uptake as described (5).

Another assay concerns uPA. As to the kind of experiment: Western blot of bleo-treated Beas2B cells: uPA. The conditions noted are these: 40 μg/ml bleo, 28 h. As to the method:
FIG. 4 depicts a set of Western blots showing the show the effect of bleo on uPA, uPAR, PAI-1 and p53 expression in LEC in vitro.
Beas2B cells were treated for 28 h with PBS or 40 μg/ml of bleo in the presence or absence of uPA or its ATF (20 nM), anti-β1-integrin monoclonal antibody (B1), (which activates β1-integrin by clustering), mouse IgG (mIgG), uPA+B1, uPA+mIgG, PP-1 (10 nM), or scrambled control peptide CP-1 (10 nM) at 37° C. In the case of uPA and PAI-1, the full length uPA was substituted with ATF, because uPA-mediated autoinduction or induction of PAI-1 occurs via the interaction of the ATF with uPAR (3-4). […] The membrane proteins were subjected to Western blotting using anti-uPAR antibody.
A general note: Immunoblotting shows a protein as a band on a membrane.

“Also recorded” adds a separate entry of the source.

Take “DGIWKASFTTFTVTKYWFYR [PP-1, residues 82-101 of human Cav-1, the caveolin-1 scaffolding domain]”: the “protection of LECs from bleo-induced apoptosis” value with Beas2B cells is given as “protected LECs from bleo-induced apoptosis; also recorded: more potent in protecting LECs than was uPA or anti-β1-integrin antibody”.
As for Bleomycin, the “cell proliferation of SAE cells” value in assay [1] was “inhibited cell proliferation”. Besides, in the assay with uPA, the uPA expression result was “suppressing”.
